Among the data in BindingDB's records for doi:10.1016/0024-3205(84)90540-x (Schering-Plough, 1984) are Ki values, retold here.

One test has as its target D(2) dopamine receptor (Rattus norvegicus, UniProt P61169).
The next test addresses D(1A) dopamine receptor (Rattus norvegicus, UniProt P18901).

The term Ki denotes a measure of affinity in units of concentration, obtained from inhibition or displacement. A lower Ki goes with a stronger hold on the target.

Where a name gives a salt, the structure may show the parent alone. A value given as a limit tells only on which side of the number the result lay.

D(2) dopamine receptor, sequence (P61169 whole entry): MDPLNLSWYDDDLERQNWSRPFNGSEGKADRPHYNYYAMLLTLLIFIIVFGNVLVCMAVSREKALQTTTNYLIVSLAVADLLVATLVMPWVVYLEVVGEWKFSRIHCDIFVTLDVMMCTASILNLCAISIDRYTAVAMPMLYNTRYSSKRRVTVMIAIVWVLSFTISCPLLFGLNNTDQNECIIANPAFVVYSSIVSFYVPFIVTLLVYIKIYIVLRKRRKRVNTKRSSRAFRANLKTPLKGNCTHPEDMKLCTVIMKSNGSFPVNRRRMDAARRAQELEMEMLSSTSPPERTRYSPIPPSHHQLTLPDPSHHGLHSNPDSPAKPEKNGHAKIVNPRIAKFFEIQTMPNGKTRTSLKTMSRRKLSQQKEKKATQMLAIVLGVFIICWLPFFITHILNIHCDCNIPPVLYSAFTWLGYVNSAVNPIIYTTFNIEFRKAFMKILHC
D(1A) dopamine receptor, sequence (P18901 whole entry): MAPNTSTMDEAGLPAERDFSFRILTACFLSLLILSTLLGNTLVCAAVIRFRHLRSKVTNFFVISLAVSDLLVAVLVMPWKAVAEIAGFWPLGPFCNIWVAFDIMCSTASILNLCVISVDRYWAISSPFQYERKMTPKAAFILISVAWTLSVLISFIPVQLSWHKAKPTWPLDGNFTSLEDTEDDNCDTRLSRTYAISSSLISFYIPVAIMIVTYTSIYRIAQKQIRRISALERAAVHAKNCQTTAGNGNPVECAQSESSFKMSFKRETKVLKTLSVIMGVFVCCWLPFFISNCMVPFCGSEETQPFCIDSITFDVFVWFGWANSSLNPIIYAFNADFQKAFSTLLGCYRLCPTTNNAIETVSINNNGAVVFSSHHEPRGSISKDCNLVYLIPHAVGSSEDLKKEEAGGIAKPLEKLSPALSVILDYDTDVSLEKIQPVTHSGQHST

Take `CC[C@@H](CO)NC(=O)[C@@H]1C=C2c3cccc4c3c(cn4C)C[C@H]2N(C)C1`: the inhibition constant (Ki) at D(2) dopamine receptor was 116 nM; on D(1A) dopamine receptor, 217 nM. On the same counts, the results for `OCCC1CCN(CC/C=C2\c3ccc(F)cc3Sc3ccc(C(F)(F)F)cc32)CC1` [trans piflutixol-(E)] are 73 nM and 95 nM.

Consider `NCCc1c[nH]cn1` [[3H]histamine], for which the Ki at D(2) dopamine receptor and on D(1A) dopamine receptor was more than 10000 nM throughout. With `NCC(O)c1ccc(O)c(O)c1` (stereo not drawn) [Noradrenaline,(+)], the inhibition constant Ki on D(2) dopamine receptor and at D(1A) dopamine receptor was more than 10000 nM in each case. `OCCN1CCN(CCCN2c3ccccc3Sc3ccc(C(F)(F)F)cc32)CC1` [2-[4-[3-[2-(trifluoromethyl)phenothiazin-10-yl]propyl]piperazin-1-yl]ethanol;hydrochloride] came in with an inhibition constant Ki on D(1A) dopamine receptor of 11.2 nM. That is a double-digit nanomolar value. On to `OCCC1CCN(CCC=C2c3ccc(F)cc3Sc3ccc(C(F)(F)F)cc32)CC1` [CAS_60197-32-2], for which the Ki on D(2) dopamine receptor was determined as 1 nM; at D(1A) dopamine receptor, 2.9 nM.

With `CN1C2CC(OC(=O)C(CO)c3ccccc3)CC1C1OC12` (stereo unspecified) [3-hydroxy-2-phenyl-propionic acid 9-methyl-3-oxa-9-aza-tricyclo[3.3.1.0*2,4*]non-7-yl ester], the Ki at D(2) dopamine receptor and at D(1A) dopamine receptor was more than 10000 nM throughout. With `N[C@@H](CCC(=O)O)C(=O)O` [L-Glutamic acid], the Ki at D(2) dopamine receptor and at D(1A) dopamine receptor was more than 10000 nM each time.

Turning to `NCCCC(=O)O` [4-amino-n-[2,3-3H]butyric acid], the inhibition constant (Ki) on D(2) dopamine receptor and at D(1A) dopamine receptor was more than 10000 nM each time. In the case of `O=C(c1ccc(F)cc1)C1CCN(CCn2c(=O)[nH]c3ccccc3c2=O)CC1` [3-(2-{4-[(4-fluorophenyl)carbonyl]piperidin-1-yl}ethyl)-1,2,3,4-tetrahydroquinazoline-2,4-dione], the Ki at D(2) dopamine receptor worked out at 397 nM; on D(1A) dopamine receptor, 1010 nM.

Regarding `OCCN1CCN(CCCN2c3ccccc3Sc3ccc(Cl)cc32)CC1` [4-[3-(2-chlorophenothiazin-10-yl)propyl]-1-piperazineethanol], the inhibition constant (Ki) on D(2) dopamine receptor worked out at 1.3 nM; on D(1A) dopamine receptor, 29.9 nM.
